≈ marks a conversion by molar mass, not a printed value.
How the values were obtained:
Design in all cases: agar dilution MIC, growth inhibition of clinical Burkholderia isolates
B. cenocepacia AU14093 = system: T1, B. cenocepacia AU14093; assay: microbe, parasite or virus in culture; conditions: Burkholderia cenocepacia, AU14093
T1 construct: AU14093
Excerpt: (§1) We evaluated the activity of cefepime-taniborbactam against a panel of 140 Bcc clinical isolates (i.e., species ambifaria, arboris, cenocepacia, cepacia, contaminans, diffusa, dolosa, multivorans, pseudomultivorans, pyrrocinia, seminalis, stabilis, ubonensis, and vietnamiensis) and 10 B. gladioli from the Burkholderia cepacia Research Laboratory and Repository (University of Michigan) ([22], [25], [31]) (Supplementary Material, Tables S1 and S2). K. pneumoniae ATCC 700603 carrying bla SHV-18 and K. pneumoniae ATCC BAA-1705 harboring bla KPC strains were used as controls for β-lactam and β-lactamase inhibitor integrity; all controls tested within the anticipated quality control ranges (Table S3). Minimum inhibitory concentration (MIC) results were interpreted using Clinical Laboratory Standards Institute (CLSI) breakpoints, where available ([32]). […] An alternative cefepime-taniborbactam provisional susceptible breakpoint of ≤16 µg/mL is supported by in vivo efficacy data from neutropenic murine infection models (thigh, complicated urinary tract, and lung) ([15] [–] [17]) and data from safety and pharmacokinetics studies in human volunteers ([33], [34]). The cefepime-taniborbactam antimicrobial activity was compared to cefepime, meropenem, meropenem-vaborbactam, and levofloxacin, to data published for first-line agents (e.g., ceftazidime and trimethoprim-sulfamethoxazole) and to those recommended by the CLSI for clinical testing (e.g., minocycline) against the Bcc and B. gladioli panel ([22], [32]). Of note, the MICs of all these agents were determined by the agar dilution method, which alongside broth microdilution, are recommended by the CLSI to assess the antimicrobial susceptibility of Bcc isolates ([32]).

B. cenocepacia AU19530 = system: T2, B. cenocepacia AU19530; assay: microbe, parasite or virus in culture; conditions: Burkholderia cenocepacia, AU19530
T2 construct: AU19530
Excerpt: as §1

B. cenocepacia AU9512 = system: T3, B. cenocepacia AU9512; assay: microbe, parasite or virus in culture; conditions: Burkholderia cenocepacia, AU9512
T3 construct: AU9512
Excerpt: as §1

B. cepacia AU0329 = system: T4, B. cepacia AU0329; assay: microbe, parasite or virus in culture; conditions: Burkholderia cepacia, AU0329
T4 construct: AU0329
Excerpt: as §1

B. cepacia AU11420 = system: T5, B. cepacia AU11420; assay: microbe, parasite or virus in culture; conditions: Burkholderia cepacia, AU11420
T5 construct: AU11420
Excerpt: as §1

B. cepacia AU27816 = system: T6, B. cepacia AU27816; assay: microbe, parasite or virus in culture; conditions: Burkholderia cepacia, AU27816
T6 construct: AU27816
Excerpt: as §1

B. cepacia AU29493 = system: T7, B. cepacia AU29493; assay: microbe, parasite or virus in culture; conditions: Burkholderia cepacia, AU29493
T7 construct: AU29493
Excerpt: as §1

B. diffusa AU19637 = system: T8, B. diffusa AU19637; assay: organism not typed
T8 construct: AU19637
Excerpt: as §1

B. dolosa AU29985 = system: T9, B. dolosa AU29985; assay: microbe, parasite or virus in culture; conditions: Burkholderia dolosa, AU29985
T9 construct: AU29985
Excerpt: as §1

B. dolosa AU9336 = system: T10, B. dolosa AU9336; assay: microbe, parasite or virus in culture; conditions: Burkholderia dolosa, AU9336
T10 construct: AU9336
Excerpt: as §1

B. gladioli AU0032 = system: T11, B. gladioli AU0032; assay: organism not typed
T11 construct: AU0032
Excerpt: as §1

B. gladioli AU16341 = system: T12, B. gladioli AU16341; assay: organism not typed
T12 construct: AU16341
Excerpt: as §1

B. multivorans AU11233 = system: T13, B. multivorans AU11233; assay: microbe, parasite or virus in culture; conditions: Burkholderia multivorans, AU11233
T13 construct: AU11233
Excerpt: as §1

B. multivorans AU11772 = system: T14, B. multivorans AU11772; assay: microbe, parasite or virus in culture; conditions: Burkholderia multivorans, AU11772
T14 construct: AU11772
Excerpt: as §1

B. multivorans AU13919 = system: T15, B. multivorans AU13919; assay: microbe, parasite or virus in culture; conditions: Burkholderia multivorans, AU13919
T15 construct: AU13919
Excerpt: as §1

B. multivorans AU16734 = system: T16, B. multivorans AU16734; assay: microbe, parasite or virus in culture; conditions: Burkholderia multivorans, AU16734
T16 construct: AU16734
Excerpt: as §1

B. multivorans AU19729 = system: T17, B. multivorans AU19729; assay: microbe, parasite or virus in culture; conditions: Burkholderia multivorans, AU19729
T17 construct: AU19729
Excerpt: as §1

B. multivorans AU30050 = system: T18, B. multivorans AU30050; assay: microbe, parasite or virus in culture; conditions: Burkholderia multivorans, AU30050
T18 construct: AU30050
Excerpt: as §1

B. seminalis AU14842 = system: T19, B. seminalis AU14842; assay: organism not typed
T19 construct: AU14842
Excerpt: as §1

B. vietnamiensis AU28891 = system: T20, B. vietnamiensis AU28891; assay: microbe, parasite or virus in culture; conditions: Burkholderia vietnamiensis, AU28891
T20 construct: AU28891
Excerpt: as §1

B. vietnamiensis AU30387 = system: T21, B. vietnamiensis AU30387; assay: microbe, parasite or virus in culture; conditions: Burkholderia vietnamiensis, AU30387
T21 construct: AU30387
Excerpt: as §1

[1] = system: T22, Burkholderia cepacia complex Bcc Indeterminate AU12560; assay: microbe, parasite or virus in culture; conditions: Burkholderia cepacia
T22 construct: AU12560
Excerpt: as §1

[2] = system: T23, Burkholderia cepacia complex Bcc Indeterminate AU9162; assay: microbe, parasite or virus in culture; conditions: Burkholderia cepacia
T23 construct: AU9162
Excerpt: as §1

| Structure (SMILES) | MIC (B. cenocepacia AU14093) [µg/mL] | MIC (B. cenocepacia AU19530) [µg/mL] | MIC (B. cenocepacia AU9512) [µg/mL] | MIC (B. cepacia AU0329) [µg/mL] | MIC (B. cepacia AU11420) [µg/mL] | MIC (B. cepacia AU27816) [µg/mL] | MIC (B. cepacia AU29493) [µg/mL] | MIC (B. diffusa AU19637) [µg/mL] | MIC (B. dolosa AU29985) [µg/mL] | MIC (B. dolosa AU9336) [µg/mL] | MIC (B. gladioli AU0032) [µg/mL] | MIC (B. gladioli AU16341) [µg/mL] | MIC (B. multivorans AU11233) [µg/mL] | MIC (B. multivorans AU11772) [µg/mL] | MIC (B. multivorans AU13919) [µg/mL] | MIC (B. multivorans AU16734) [µg/mL] | MIC (B. multivorans AU19729) [µg/mL] | MIC (B. multivorans AU30050) [µg/mL] | MIC (B. seminalis AU14842) [µg/mL] | MIC (B. vietnamiensis AU28891) [µg/mL] | other results |
| --- | --- | --- | --- | --- | --- | --- | --- | --- | --- | --- | --- | --- | --- | --- | --- | --- | --- | --- | --- | --- | --- |
| C[C@H]1COc2c(N3CCN(C)CC3)c(F)cc3c(=O)c(C(=O)O)cn1c23 [levofloxacin] | > 32 | 16 (≈ 44.3 µM) | 16 (≈ 44.3 µM) | > 32 | 4 (≈ 11.1 µM) | 4 (≈ 11.1 µM) | 8 (≈ 22.1 µM) | 2 (≈ 5.53 µM) | > 32 | 32 (≈ 88.6 µM) | 8 (≈ 22.1 µM) | 4 (≈ 11.1 µM) | 16 (≈ 44.3 µM) | 8 (≈ 22.1 µM) | 2 (≈ 5.53 µM) | 8 (≈ 22.1 µM) | 16 (≈ 44.3 µM) | 1 (≈ 2.77 µM) | 4 (≈ 11.1 µM) | 8 (≈ 22.1 µM) | MIC (B. vietnamiensis AU30387): 2 µg/mL (≈ 5.53 µM); MIC [1]: 8 µg/mL (≈ 22.1 µM); MIC [2]: 1 µg/mL (≈ 2.77 µM) |
| CO/N=C(\C(=O)N[C@@H]1C(=O)N2C(C(=O)[O-])=C(C[N+]3(C)CCCC3)CS[C@H]12)c1csc(N)n1 [cefepime] | > 32 | > 32 | 32 (≈ 66.6 µM) | > 32 | > 32 | 16 (≈ 33.3 µM) | > 32 | 32 (≈ 66.6 µM) | > 32 | > 32 | > 32 | > 32 | > 32 | > 32 | 8 (≈ 16.6 µM) | 16 (≈ 33.3 µM) | > 32 | 2 (≈ 4.16 µM) | 16 (≈ 33.3 µM) | 8 (≈ 16.6 µM) | MIC (B. vietnamiensis AU30387): 2 µg/mL (≈ 4.16 µM); MIC [1]: 32 µg/mL (≈ 66.6 µM); MIC [2]: 32 µg/mL (≈ 66.6 µM) |
| C[C@@H](O)[C@H]1C(=O)N2C(C(=O)O)=C(S[C@@H]3CN[C@H](C(=O)N(C)C)C3)[C@H](C)[C@H]12 [meropenem] | 8 (≈ 20.9 µM) | 8 (≈ 20.9 µM) | 4 (≈ 10.4 µM) | 2 (≈ 5.22 µM) | 8 (≈ 20.9 µM) | 4 (≈ 10.4 µM) | 8 (≈ 20.9 µM) | 2 (≈ 5.22 µM) | > 32 | 8 (≈ 20.9 µM) | 2 (≈ 5.22 µM) | 8 (≈ 20.9 µM) | 8 (≈ 20.9 µM) | 16 (≈ 41.7 µM) | 8 (≈ 20.9 µM) | 16 (≈ 41.7 µM) | 16 (≈ 41.7 µM) | 2 (≈ 5.22 µM) | 4 (≈ 10.4 µM) | 2 (≈ 5.22 µM) | MIC (B. vietnamiensis AU30387): 0.25 µg/mL (≈ 0.652 µM); MIC [1]: 4 µg/mL (≈ 10.4 µM); MIC [2]: 4 µg/mL (≈ 10.4 µM) |

Reference: publication PMC10648927, “Examining the activity of cefepime-taniborbactam against Burkholderia cepacia complex and Burkholderia gladioli isolated from cystic fibrosis patients in the United States” (Antimicrobial Agents and Chemotherapy, 2023)
